These results are taken from US11053250B2, “Pyrrolo[1,2-b]pyridazine derivatives” (Gilead Sciences, Inc., priority 2018, dated 2021).

By EC50 is commonly meant the concentration that produces a half-maximal response. As a reminder, the IC50 is the concentration that inhibits the measured activity by half. Low values mean greater potency in that assay, high ones weaker potency in that assay.

One assay deals with TNFα. Put plainly: IRAK4 Monocyte TNFα Cell Based Assay. The conditions noted are these: cryopreserved human monocytes, LPS 50 pg/ml stimulation, TNFα by TR-FRET. The protocol: The cell suspension was then plated at a density of 5,000 cells/well onto black 384 well Greiner clear bottom plates. Plates were pre-spotted with test compounds and serially diluted in DMSO where 40 nL/well were delivered using the Echo 550 acoustic liquid dispenser (Labcyte®) for a final DMSO concentration of 0.1%. Plated cells were treated with compound for 1 hour at 37° C. Cells were then stimulated with 50 pg/ml of LPS (Sigma) excluding outside columns of plate used for unstimulated cell control wells. Cells were incubated for an additional 4 hours at 37° C. Cells were then spun out of the media and 5 μl of sample were taken and analyzed for total TNFα content using the TR-FRET Human TNFα detection system (CisBio). This system utilizes two labeled antibodies (cryptate and XL665) that bind to two different epitopes of the TNFα molecule and produce FRET signal proportional to the concentration of TNFα in the sample. Detection antibodies are mixed 50:50 and 5 μL were dispensed into each well. Plates were covered with clear seals and incubated at room temp overnight. The following morning plates were read using an Envision 2103 Multilabeled reader (PerkinElmer) with excitation/emission/FRET emission at 340 nm/615 nm/665 nm, respectively. Fluorescence intensities at 615 nm and 665 nm emission wavelengths were expressed as a ratio (665 nm/615 nm). Percent of control was calculated as follows: % Control=100×(RatioSample−Ratio0% stimulation)/(Ratio100% Stimulation−Ratio0% stimulation) where unstimulated cells (0% stimulation) were the negative control and stimulated cells (100% stimulation) were used as the positive control.
In general terms: Time-resolved FRET reads energy transfer from a long-lived donor to a nearby acceptor.

A further assay addresses IRAK4 enzyme (Homo sapiens (Human), UniProt Q9NWZ3). Put plainly: IRAK4 Biochemical Assay (TR-FRET/HTRF). The conditions noted are these: 0.75 nM IRAK4, 500 μM ATP, STK1 peptide. The protocol: IRAK4 enzyme (Carna Biosciences, Chuo-ku, Kobe, Japan) activity was measured by detecting phosphorylated peptide substrate formation using an antibody against the phosphorylated peptide substrate. This is a time-resolved fluorescence resonance energy transfer (TR-FRET) immunoassay, based on the STK1 KinEASE Assay (Cisbio, Bedford, Mass.). The assay was designed as a simple two-step, endpoint assay (a 5 μl enzyme reaction followed by 5 μl stop and detect Solution) performed in ProxiPlate-384 Plus plates (Perkin Elmer, Waltham, Mass.). Staurosporine, a non-selective kinase inhibitor was used as a positive control. Compounds diluted in DMSO were spotted into 384 well plates using a Labcyte® Echo 550 Liquid Handling System prior to addition of IRAK4 enzyme and peptide substrate. Reaction solutions were delivered using a Multi-Flo (Bio-Tek Instruments). The enzyme and peptide solution was incubated with compound for 15 minutes at room temp before the reaction was initiated by the addition of ATP. The standard 5 μl reaction mixture contained 500 μM ATP, 2 μM peptide (STK1 Peptide), 0.75 nM of IRAK4 in reaction buffer (50 mM HEPES, pH 7.0, 0.02% NaN3, 0.01% BSA, 0.1 mM Orthovanadate, 5 mM MgCl2, 0.025% NP-40, 1 mM DTT). After 120 min of incubation at room temperature, 5 μl of Stop and Detect Solution (1:100 Cryptate labeled anti-phosphorylated peptide antibody solution and 125 nM Tracer in a 50 mM HEPES pH 7.0 detection buffer containing sufficient EDTA) was added. The plate was then further incubated for 60 minutes at room temperature and read on Envision 2103 Multilabeled reader (PerkinElmer) with excitation/emission/FRET emission at 340 nm/615 nm/665 nm, respectively. Fluorescence intensities at 615 nm and 665 nm emission wavelengths were expressed as a ratio (665 nm/615 nm). Percentage of inhibition was calculated as below: % Inhibition=100×(RatioSample−Ratio0% Inhibition)/(Ratio100% Inhibition−Ratio0% Inhibition)
The 0% inhibition value comes from control wells lacking inhibitor. The 100% inhibition value comes from control wells containing a saturating amount of known inhibitor staurosporine.

IRAK4 enzyme, sequence (Q9NWZ3 whole entry): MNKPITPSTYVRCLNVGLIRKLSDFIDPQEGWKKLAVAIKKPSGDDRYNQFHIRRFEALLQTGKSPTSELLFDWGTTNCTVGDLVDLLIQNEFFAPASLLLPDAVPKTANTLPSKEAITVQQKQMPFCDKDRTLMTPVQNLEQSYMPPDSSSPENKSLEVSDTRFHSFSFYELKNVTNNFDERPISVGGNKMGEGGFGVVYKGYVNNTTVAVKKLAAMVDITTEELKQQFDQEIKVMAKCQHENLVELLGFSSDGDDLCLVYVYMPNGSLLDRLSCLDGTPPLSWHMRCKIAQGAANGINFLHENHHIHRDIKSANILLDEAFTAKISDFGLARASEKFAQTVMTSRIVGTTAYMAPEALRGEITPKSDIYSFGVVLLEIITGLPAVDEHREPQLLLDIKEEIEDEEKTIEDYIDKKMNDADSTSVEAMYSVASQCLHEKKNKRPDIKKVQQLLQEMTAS

Turning to `COC(=O)NC[C@H]1C[C@H](Nc2cc(-c3ccc4cc(C#N)cnn34)ncc2-c2cn(CC(=O)N3CC(F)(F)C3)nn2)C1` [Compound 14, methyl (((1r,3r)-3-((2-(3-cyanopyrrolo[1,2-b]pyridazin-7-yl)-5-(1-(2-(3,3-difluoroazetidin-1-yl)-2-oxoethyl)-1H-1,2,3-triazol-4-yl)pyridin-4-yl)amino)cyclobutyl)methyl)carbamate], the response in the assay on TNFα was half-maximal at 18 nM (EC50). Besides, the half-maximal inhibitory concentration (IC50) against IRAK4 enzyme was under 1 nM.

Take `CC(C)(O)[C@H](F)Cn1cc(-c2cnc(-c3ccc4cc(C#N)cnn34)cc2N[C@H]2CC[C@H](c3cnn(C(F)F)c3)CC2)nn1` [Compound 15, 7-(4-(((1r,4R)-4-(1-(difluoromethyl)-1H-pyrazol-4-yl)cyclohexyl)amino)-5-(1-((R)-2-fluoro-3-hydroxy-3-methylbutyl)-1H-1,2,3-triazol-4-yl)pyridin-2-yl)pyrrolo[1,2-b]pyridazine-3-carbonitrile]: in the assay with TNFα, the EC50 came out at 18 nM. The same molecule gave an IC50 against IRAK4 enzyme of 3 nM.

`COC(=O)NC[C@H]1C[C@H](Nc2cc(-c3ccc4cc(C#N)cnn34)ncc2-c2cn(CC#N)nn2)C1` [Compound 16, methyl (((1r,3r)-3-((5-(1-(cyanomethyl)-1H-1,2,3-triazol-4-yl)-2-(3-cyanopyrrolo[1,2-b]pyridazin-7-yl)pyridin-4-yl)amino)cyclobutyl)methyl)carbamate] displayed an EC50 in the assay on TNFα of 33 nM. Also, the IC50 at IRAK4 enzyme stood at 1 nM.

For the molecule `CNc1cc(-c2ccc3cc(C#N)cnn23)ncc1-c1cn([C@H]2CC[C@H](NC(=O)N3CCOCC3)CC2)nn1` [Compound 18, N-((1r,4r)-4-(4-(6-(3-cyanopyrrolo[1,2-b]pyridazin-7-yl)-4-(methylamino)pyridin-3-yl)-1H-1,2,3-triazol-1-yl)cyclohexyl)morpholine-4-carboxamide], in the assay with TNFα, a half-maximal effect (EC50) was put at 49 nM. In addition, inhibition on IRAK4 enzyme was half-maximal at 2 nM (IC50).

Regarding `COC(=O)NC[C@H]1C[C@H](Nc2cc(-c3ccc4cc(C#N)cnn34)ncc2-c2cn([C@H]3CC[C@H](NC(=O)C4CC4)CC3)nn2)C1` [Compound 19, methyl (((1R,3r)-3-((2-(3-cyanopyrrolo[1,2-b]pyridazin-7-yl)-5-(1-((1r,4R)-4-(cyclopropanecarboxamido)cyclohexyl)-1H-1,2,3-triazol-4-yl)pyridin-4-yl)amino)cyclobutyl)methyl)carbamate], in the assay with TNFα, the EC50 stood at 9 nM. Also, the IC50 against IRAK4 enzyme is under 1 nM.

`CNc1cc(-c2ccc3cc(C#N)cnn23)ncc1-c1cn([C@H]2CC[C@H](NC(=O)C3CC3)CC2)nn1` [Compound 20, N-((1r,4r)-4-(4-(6-(3-cyanopyrrolo[1,2-b]pyridazin-7-yl)-4-(methylamino)pyridin-3-yl)-1H-1,2,3-triazol-1-yl)cyclohexyl)cyclopropanecarboxamide] had an EC50 in the assay on TNFα of 62 nM. Moreover, the midpoint of inhibition against IRAK4 enzyme, the IC50, lay at 1 nM.

Turning to `Cn1cc(-c2cnc(-c3ccc4cc(C#N)cnn34)cc2NC23CCC(O)(CC2)CC3)nn1` [Compound 21, 7-(4-((4-hydroxybicyclo[2.2.2]octan-1-yl)amino)-5-(1-methyl-1H-1,2,3-triazol-4-yl)pyridin-2-yl)pyrrolo[1,2-b]pyridazine-3-carbonitrile], in the assay with TNFα (Monocyte), the midpoint of the response, the EC50, lay at 9 nM. The molecule also returned an IC50 on IRAK4 enzyme of under 1 nM.

`COC(=O)NCC1CC(Nc2cc(-c3ccc4cc(C#N)cnn34)ncc2-c2cn(C3CCC(NC(=O)OC(C)(C)C)CC3)nn2)C1` [Compound 22, methyl (((1R,3r)-3-((5-(1-((1r,4R)-4-((tert-butoxycarbonyl)amino)cyclohexyl)-1H-1,2,3-triazol-4-yl)-2-(3-cyanopyrrolo[1,2-b]pyridazin-7-yl)pyridin-4-yl)amino)cyclobutyl)methyl)carbamate] came in with an EC50 with TNFα of 187 nM. Besides, on IRAK4 enzyme, half-maximal inhibition (IC50) was put at 1 nM.

On to `CNc1cc(-c2ccc3cc(C#N)cnn23)ncc1-c1cn(CC(F)(F)F)nn1` [Compound 24, 7-(4-(methylamino)-5-(1-(2,2,2-trifluoroethyl)-1H-1,2,3-triazol-4-yl)pyridin-2-yl)pyrrolo[1,2-b]pyridazine-3-carbonitrile], for which the midpoint of the response with TNFα (Monocyte), the EC50, lay at 302 nM. The same molecule returned an IC50 against IRAK4 enzyme of 11 nM.

In the assay with TNFα (Monocyte), `CC(C)(O)[C@H](F)Cn1cc(-c2cnc(-c3ccc4cc(C#N)cnn34)cc2NC23CCC(O)(CC2)CC3)nn1` [Compound 25, (R)-7-(5-(1-(2-fluoro-3-hydroxy-3-methylbutyl)-1H-1,2,3-triazol-4-yl)-4-((4-hydroxybicyclo[2.2.2]octan-1-yl)amino)pyridin-2-yl)pyrrolo[1,2-b]pyridazine-3-carbonitrile] showed an EC50 of 3 nM. The IC50 against IRAK4 enzyme was under 1 nM.

Turning to `CNc1cc(-c2ccc3cc(C#N)cnn23)ncc1-c1cn(CCC(C)(C)O)nn1` [Compound 26, 7-(5-(1-(3-hydroxy-3-methylbutyl)-1H-1,2,3-triazol-4-yl)-4-(methylamino)pyridin-2-yl)pyrrolo[1,2-b]pyridazine-3-carbonitrile], the response with TNFα (Monocyte) was half-maximal at 79 nM (EC50). Further, on IRAK4 enzyme, it took 2 nM to reach half-maximal inhibition (IC50).

As to `CNc1cc(-c2ccc3cc(C#N)cnn23)ncc1-c1cn(CC(F)F)nn1` [Compound 27, 7-(5-(1-(2,2-difluoroethyl)-1H-1,2,3-triazol-4-yl)-4-(methylamino)pyridin-2-yl)pyrrolo[1,2-b]pyridazine-3-carbonitrile], in the assay with TNFα (Monocyte), the response was half-maximal at 338 nM (EC50). The molecule also yielded an IC50 at IRAK4 enzyme of 9 nM.

Consider `CNc1cc(-c2ccc3cc(C#N)cnn23)ncc1-c1cn(CC(F)(F)C(C)(C)O)nn1` [Compound 28, 7-(5-(1-(2,2-difluoro-3-hydroxy-3-methylbutyl)-1H-1,2,3-triazol-4-yl)-4-(methylamino)pyridin-2-yl)pyrrolo[1,2-b]pyridazine-3-carbonitrile], for which, in the assay on TNFα (Monocyte), a half-maximal effect (EC50) was put at 94 nM. Besides, on IRAK4 enzyme, the IC50 stood at 3 nM.

Regarding `COC(=O)NC[C@H]1C[C@H](Nc2cc(-c3ccc4cc(C#N)cnn34)ncc2-c2cn(CC(F)(F)F)nn2)C1` [Compound 29, methyl (((1r,3r)-3-((2-(3-cyanopyrrolo[1,2-b]pyridazin-7-yl)-5-(1-(2,2,2-trifluoroethyl)-1H-1,2,3-triazol-4-yl)pyridin-4-yl)amino)cyclobutyl)methyl)carbamate], the response with TNFα was half-maximal at 77 nM (EC50). Further, the IC50 against IRAK4 enzyme is under 1 nM.

On to `COC(=O)NC[C@H]1C[C@H](Nc2cc(-c3ccc4cc(C#N)cnn34)ncc2-c2cn(CCC(C)(C)O)nn2)C1` [Compound 30, methyl (((1r,3r)-3-((2-(3-cyanopyrrolo[1,2-b]pyridazin-7-yl)-5-(1-(3-hydroxy-3-methylbutyl)-1H-1,2,3-triazol-4-yl)pyridin-4-yl)amino)cyclobutyl)methyl)carbamate], for which, in the assay on TNFα, a half-maximal response (EC50) required 4 nM. The IC50 at IRAK4 enzyme is under 1 nM.

`CC(C)(O)[C@H](F)Cn1cc(-c2cnc(-c3ccc4cc(C#N)cnn34)cc2NC2COC2)nn1` [Compound 31, (R)-7-(5-(1-(2-fluoro-3-hydroxy-3-methylbutyl)-1H-1,2,3-triazol-4-yl)-4-(oxetan-3-ylamino)pyridin-2-yl)pyrrolo[1,2-b]pyridazine-3-carbonitrile]: the EC50 with TNFα (Monocyte) turned out to be 23 nM. Besides, the IC50 against IRAK4 enzyme was under 1 nM.

In turn, `COC(=O)NC[C@H]1C[C@H](Nc2cc(-c3ccc4cc(C#N)cnn34)ncc2-c2cn(CC(F)F)nn2)C1` [Compound 32, methyl (((1r,3r)-3-((2-(3-cyanopyrrolo[1,2-b]pyridazin-7-yl)-5-(1-(2,2-difluoroethyl)-1H-1,2,3-triazol-4-yl)pyridin-4-yl)amino)cyclobutyl)methyl)carbamate] showed an EC50 in the assay on TNFα of 38 nM. This molecule showed an IC50 on IRAK4 enzyme of under 1 nM.
